The values that follow come from ChEMBL document CHEMBL1149353, “Exploring alternative Zn-binding groups in the design of HDAC inhibitors: squaric acid, N-hydroxyurea, and oxazoline analogues of SAHA” (Bioorg Med Chem Lett, 2006).

Calls of active or inactive are those of the source. The calls are words filed in the database; no cut-off is given here.

For this test, the target named is Histone deacetylase (Homo sapiens) (UniProt Q13547+O15379+Q9UBN7+Q92769+Q9UQL6+Q8WUI4+Q9BY41+Q96DB2+P56524+Q9UKV0+Q969S8). Put plainly: Inhibition of HDAC at <1 uM. Type of test: protein assay.
For `CSc1c(NCCCCCC(=O)Nc2ccccc2)c(=O)c1=O`, the result was inactive.
In the case of `O=C(CCCCCNc1c(O)c(=O)c1=O)Nc1ccccc1`, the result was inactive.
For `O=C(CCCCC/N=c1/c(S)c(O)c1=O)Nc1ccccc1` the value was “inactive”; for `CSc1c(NCCCCCCC(=O)Nc2ccccc2)c(=O)c1=O`, “inactive”; for `O=C(CCCCCCC1=N[C@@H](COCc2ccccc2)CO1)Nc1ccccc1`, “inactive”.
The value for `CSc1c(NCCCCC(=O)Nc2ccccc2)c(=O)c1=O` was “inactive”; that for `COc1ccc(COC(CCCCCNC(=O)NO)C(=O)Nc2ccccc2)cc1` (stereo not drawn) was “inactive”; that for `O=C(CCCCCC/N=c1/c(S)c(O)c1=O)Nc1ccccc1` was “inactive”.
The value for `O=C(CCCC/N=c1/c(S)c(O)c1=O)Nc1ccccc1` was “inactive”.
Consider `O=C(CCCCCCC1=N[C@@H](CO)CO1)Nc1ccccc1`, for which the result was inactive.
The value for `CN(O)c1c(SCCCCC(=O)Nc2ccccc2)c(=O)c1=O` was “inactive”.
For the compound `O=C(CCCCCCNc1c(O)c(=O)c1=O)Nc1ccccc1`, the result was inactive.
For `O=C(CCCCNc1c(O)c(=O)c1=O)Nc1ccccc1` the value was “inactive”.
